Experimental data taken from PubChem BioAssay (NCI).
Values joined by “and” are separate entries in the source; they are usually repeats but may differ in a detail not shown here. Equal entries are not always repeated.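 All cell lines were grown in 96-well plates and treated with compound for 48 hours. GI50: concentration for 50% inhibition of growth. TGI is the concentration that stops growth completely.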

Experiments:
Assay in all cases: DTP human tumour cell line panel, 48 h
SK-MEL-5 melanoma = system: SK-MEL-5 melanoma
SK-OV-3 ovarian = system: SK-OV-3 ovarian
OVCAR-8 ovarian = system: OVCAR-8 ovarian
SW-620 colon = system: SW-620 colon
HOP-92 NSCLC = system: HOP-92 NSCLC
KM12 colon = system: KM12 colon
NCI-H23 lung = system: NCI-H23 lung
RXF 393 renal = system: RXF 393 renal
SNB-19 CNS = system: SNB-19 CNS
MALME-3M melanoma = system: MALME-3M melanoma

Row | SMILES | GI50 (SK-MEL-5 melanoma) | TGI (SK-MEL-5 melanoma) | GI50 (SK-OV-3 ovarian) | TGI (SK-OV-3 ovarian) | GI50 (OVCAR-8 ovarian) | TGI (OVCAR-8 ovarian) | GI50 (SW-620 colon) | TGI (SW-620 colon) | GI50 (HOP-92 NSCLC) | TGI (HOP-92 NSCLC) | GI50 (KM12 colon) | TGI (KM12 colon) | GI50 (NCI-H23 lung) | TGI (NCI-H23 lung) | GI50 (RXF 393 renal) | TGI (RXF 393 renal) | GI50 (SNB-19 CNS) | TGI (SNB-19 CNS) | GI50 (MALME-3M melanoma) | TGI (MALME-3M melanoma)
1 | N#Cc1c(NN)n(C2OC(CO)C(O)C2O)c2ncnc(N)c12 (stereo not given) | 0.461 µM | 3.05 µM | 0.198 µM | 0.722 µM | 0.257 µM | 7.56 µM | 0.0254 µM | 1.18 µM | 0.142 µM | 1.43 µM | 0.0874 µM | 1.72 µM | 0.218 µM | 2.47 µM | 0.0398 µM | 0.415 µM | 0.395 µM | > 29.5 µM | 0.0858 µM | 1.35 µM
2 | CCCCC(C(=O)C(=O)NC1C2CC3CC(C2)CC1C3)C(=O)C(C)C (stereo not given) |  | > 100 µM |  | > 100 µM |  | > 100 µM |  | > 100 µM |  | > 100 µM |  | > 100 µM |  | > 100 µM |  | > 100 µM |  | > 100 µM |  | > 100 µM
3 | CCCCCCNC(=O)c1cc(NCc2cc(O)ccc2O)ccc1O | 11.8 µM | 25.4 µM | 25.8 µM | > 100 µM | 4.83 µM | 36.2 µM | 8.75 µM | 33.1 µM | 1.66 µM | 5.03 µM | 11.5 µM | 29 µM | 13.1 µM | 33.1 µM | 2.42 µM | 8.03 µM | 14.9 µM | 28.6 µM | 2.74 µM | 8.29 µM
4 | O=C1/C(=C/c2ccc(Br)cc2)COc2ccc(O)c(O)c21 | 1.4 µM | 2.84 µM | 2.63 µM | 11.6 µM | 0.675 µM |  | 0.671 µM | 2.22 µM | 1.26 µM | 5.49 µM | 1.11 µM | 3.35 µM | 1.62 µM | 3.65 µM | 1.1 µM | 2.43 µM | 1.38 µM | 3.05 µM | 1.11 µM | 3.35 µM
5 | S=C(Nc1ccccc1)N(/N=C/C=C/c1ccccc1)c1nnc(-c2ccccc2)c(-c2ccccc2)n1 |  | > 100 µM |  | > 100 µM |  | > 100 µM |  | > 100 µM |  | 83.8 µM |  | > 100 µM |  | > 100 µM |  | > 100 µM |  | > 100 µM |  | > 100 µM
6 | CCOC(=O)CCCn1c(SC)nc2[nH]cc(-c3ccccc3)c2c1=O | 12.9 µM | 25.7 µM | 25.6 µM | 93.6 µM | 19 µM | 58.9 µM | 20.7 µM | 78.6 µM | 7.62 µM | 41.1 µM | 16.8 µM | 38.2 µM | 11.6 µM | 34.6 µM | 18.2 µM | 49 µM | 21 µM | > 100 µM | 15.1 µM | 42.1 µM
7 | COc1cc(C#CC(=O)OC/C=C/c2ccc3c(c2)OCO3)cc(OC)c1OC |  | 32.8 µM |  | 68.6 µM |  | > 100 µM |  | 80.6 µM |  | 54.5 µM |  | > 100 µM |  | 58.5 µM |  | 30.2 µM |  | > 100 µM |  | 47.7 µM
8 | O=C1c2cccc(NCCCNCCO)c2C(=O)c2cccc(NCCCNCCO)c21 |  | 3.31 µM and 4.4 µM |  | 7.23 µM |  | 4.57 µM and 5.66 µM |  | 3.41 µM and 7.57 µM |  | 4.08 µM |  | 4.43 µM and 5.84 µM |  | 6.08 µM and 4.38 µM |  | 5.54 µM and 5.82 µM |  | 5.58 µM | 2.06 µM and 4.18 µM | 3.94 µM and 10.4 µM
9 | CCn1c(-c2nonc2N)nc2c(C#CC(C)(C)O)nc(OC[C@H](N)c3ccccc3)cc21 | 4.21 µM | 7.64 µM | 1.56 µM | 5.71 µM | 4.21 µM | 9.44 µM | 4.47 µM | 8.67 µM | 2.37 µM | 7.38 µM | 2.99 µM | 6.39 µM | 5.21 µM | 12.4 µM | 1.28 µM | 4.73 µM | 7.3 µM | 20.5 µM | 4.69 µM | 9.35 µM
